How the values were obtained:
hepatic enzymes = assay: Auto-induction on repeated dosing (fall in C max / AUC); assay type: in vivo; conditions: repeated dosing to a warm-blooded animal
Source text: The result is a decrease on repeat dosing of the quantity of the compound present in the animal's blood stream as shown, for example, by a decrease in the maximum concentration achieved (C max) or, for example, a decrease in the exposure of the animal to the compound as measured by the area under the curve (AUC) of a plot of the concentration of the compound in the blood stream versus time after dosing.

5-LO [1] = molecular target: T1, 5-LO (Homo sapiens, UniProt P09917); assay: Test a): in vitro heparinised human blood challenged with calcium ionophore A23187, LTB4 radioimmunoassay; assay type: cell-based; conditions: heparinised human blood, A23187 challenge; read-out: IC₅₀ against LTB₄ in test a)
T1 construct: incubating a test compound with heparinised human blood, prior to challenge with the calcium ionophore A23187; endogenous in cells; host or cells: blood cells of heparinised human whole blood
T1 sequence (P09917 1-674): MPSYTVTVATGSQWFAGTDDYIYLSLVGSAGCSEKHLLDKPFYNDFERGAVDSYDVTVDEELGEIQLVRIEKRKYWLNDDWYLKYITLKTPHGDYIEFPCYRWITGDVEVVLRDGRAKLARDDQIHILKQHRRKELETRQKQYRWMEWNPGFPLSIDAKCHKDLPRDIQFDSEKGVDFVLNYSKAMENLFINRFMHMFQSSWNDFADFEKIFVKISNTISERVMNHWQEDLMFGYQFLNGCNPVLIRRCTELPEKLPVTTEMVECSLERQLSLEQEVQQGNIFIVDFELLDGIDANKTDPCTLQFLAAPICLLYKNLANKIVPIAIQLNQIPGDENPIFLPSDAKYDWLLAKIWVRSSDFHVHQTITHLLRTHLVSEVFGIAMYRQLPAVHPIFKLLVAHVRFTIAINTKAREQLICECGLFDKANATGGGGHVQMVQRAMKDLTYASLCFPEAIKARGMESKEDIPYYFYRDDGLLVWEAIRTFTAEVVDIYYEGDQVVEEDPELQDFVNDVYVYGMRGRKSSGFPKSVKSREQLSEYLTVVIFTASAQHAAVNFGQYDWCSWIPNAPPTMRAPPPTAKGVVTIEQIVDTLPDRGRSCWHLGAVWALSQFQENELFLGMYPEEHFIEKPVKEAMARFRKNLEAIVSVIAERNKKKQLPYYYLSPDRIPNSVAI
Source text: As stated previously, the compounds of the formula I are inhibitors of the enzyme 5-LO. […] J. Pharmacol. 1985, 84, 34P) which involve the use of a protein-LTB₄ conjugate produced using the procedure of Young et alia (Prostaglandins, 1983, 26(4), 605-613). The effects of a test compound on the enzyme cyclooxygenase (which is involved in the alternative metabolic pathway for arachidonic acid and gives rise to prostaglandins, thromboxanes and related metabolites) may be measured at the same time using the specific radioimmunoassay for thromboxane B₂(TxB₂) described by Carey and Forder (see above). This test provides an indication of the effects of a test compound against 5-LO and also cyclooxygenase in the presence of blood cells and proteins. It permits the selectivity of the inhibitory effect on 5-LO or cyclooxygenase to be assessed. • b) An ex vivo assay system, which is a variation of test a) above, involving administration to a group of rats of a test compound (usually orally as the suspension produced when a solution of the test compound in dimethylsulphoxide is added to carboxymethylcellulose), blood collection, heparinisation, challenge with A23187 and radioimmunoassay of LTB₄ and TxB₂. […]

5-LO [2] = assay: Test c): in vivo zymosan-induced LTB4 liberation in rat subcutaneous air pouch; set-up: species or system male rats; conditions: oral, approximate value, 180 min

| Compound | auto-induction (hepatic enzymes) | IC50 (5-LO [1]) [nM] | IC₅₀ against LTB₄ in test c) (5-LO [2]) |
| --- | --- | --- | --- |
| COC1(c2ccc(Sc3ccc4c(c3)CCC(=O)N4C)s2)CCOCC1 [4-methoxy-4-[5-(1-methyl-2-oxo-1,2,3,4-tetrahydroquinolin-6-ylthio)-thien-2-yl]tetrahydropyran] | possesses the undesirable property of auto-induction | – | – |
| CO[C@]1(c2cnc(Sc3ccc4c(c3)CCC(=O)N4C)s2)CCO[C@@H](C)C1 [Example 3, (2S,4R)-4-methoxy-2-methyl-4-[2-(1-methyl-2-oxo-1,2,3,4-tetrahydroquinolin-6-ylthio)thiazol-5-yl]tetrahydropyran] | – | 60 | approximately 0.2 mg/kg |

Source: patent publication EP0636624A1, “Thiazole derivatives as lipoxygenase inhibitors” (ZENECA LIMITED, priority 1993, dated 1995)
